Counter-ions that a name gives are not always drawn. *1 amine or outer side, *2 acyl side, *3 side chain or, on linkers, in order; H or OH if unused. Where a SMILES comes first, the peptide text is derived from it. Bridges are numbered along the chain shown (N, C = ends). [ ]: non-standard residue; d: D form. The star is where a group is joined. X1 = NC1=N[C@@H]([C@H](N[*:1])C(=O)[*:2])C[C@H](O)N1; ΔAla(Z-3-ureido) = NC(=O)N/C=C(\N)C(=O)O; β3hOrn = NCCC[C@H](N)CC(=O)*; Dap = NC[C@H](N)C(=O)O
Assay: in vitro
Settings: PAMPA, PAMPA-BBB Pe(10^-6 cm/sec)

Row | SMILES | Papp
1 | CN[C@H](CC(C)C)C(=O)N[C@H]1C(=O)N[C@@H](CC(N)=O)C(=O)N[C@H]2C(=O)N[C@H]3C(=O)N[C@H](C(=O)N[C@H](C(=O)O)c4cc(O)cc(O)c4-c4cc3ccc4O)[C@H](O)c3ccc(c(Cl)c3)Oc3cc2cc(c3O[C@@H]2O[C@H](CO)[C@@H](O)[C@H](O)[C@H]2O[C@H]2C[C@](C)(N)[C@H](O)[C@H](C)O2)Oc2ccc(cc2Cl)[C@H]1O [VANCOMYCIN HYDROCHLORIDE] | < 1 ×10⁻⁶ cm/s
2 | Cc1cc2nc3c(=O)[nH]c(=O)nc-3n(C[C@H](O)[C@H](O)[C@H](O)CO)c2cc1C [RIBOFLAVIN] | < 1 ×10⁻⁶ cm/s
3 | COc1ccc(/C=C/C(=O)O)cc1OC [3,4-DIMETHOXYCINNAMIC ACID] | < 1 ×10⁻⁶ cm/s
4 | CNCC(O)c1ccc(O)c(O)c1 (stereo not shown) [RACEPINEPHRINE HYDROCHLORIDE] | < 1 ×10⁻⁶ cm/s

Same assay, conditions: PAMPA, PAMPA-BBB Pe(10^-6 cm/sec), Table S3: compounds exhibiting low PAMPA-BBB permeability

Row | SMILES | Papp
5 | Cc1cc(O)cc(O)c1C(=O)O [[…]] | < 1 ×10⁻⁶ cm/s
6 | NCCC[C@H](N)CC(=O)N[C@H]1CNC(=O)[C@H]([C@H]2C[C@H](O)NC(N)=N2)NC(=O)/C(=C/NC(N)=O)NC(=O)[C@H](CO)NC(=O)[C@H](CO)NC1=O [VIOMYCIN SULFATE] (β3hOrn-[Dap]SS[ΔAla(Z-3-ureido)][X1]; lactam 1-C) | < 1 ×10⁻⁶ cm/s
7 | Cc1ncc(CO)c(CO)c1O [[…]] | < 1 ×10⁻⁶ cm/s
8 | NCCc1c[nH]c2ccccc12 [TRYPTAMINE HYDROCHLORIDE] | < 1 ×10⁻⁶ cm/s
9 | C/C=C1\[C@H]2C=C(C)C[C@]1(N)c1ccc(=O)[nH]c1C2 [HUPERZINE A] | 8.1 ×10⁻⁶ cm/s
10 | CC(C)=CCNc1ncnc2c1ncn2[C@@H]1O[C@H](CO)[C@@H](O)[C@H]1O [RIBOPRINE] | < 1 ×10⁻⁶ cm/s
11 | Cc1coc2c1C(=O)C(=O)c1c-2ccc2c(C)cccc12 [TANSHINONE I] | 6.8 ×10⁻⁶ cm/s
12 | NC1C=CC=C(C(=O)O)C1 (stereo not shown) | < 1 ×10⁻⁶ cm/s
13 | Nc1ncnc2c1ccn2[C@@H]1O[C@H](CO)[C@@H](O)[C@H]1O [TUBERCIDIN] | 2.1 ×10⁻⁶ cm/s
14 | C=C1CC[C@H](O)C/C1=C/C=C1\CCC[C@]2(C)[C@@H]([C@H](C)/C=C/[C@H](C)C(C)C)CC[C@@H]12 [ERGOCALCIFEROL] | < 1 ×10⁻⁶ cm/s
15 | COc1cc2c(c(OC)c1OC)-c1ccc(O)c(=O)cc1[C@@H](N)CC2 [N-DEACETYLCOLCHICEINE] | 8.2 ×10⁻⁶ cm/s
16 | O=c1ccc2ccc(O)c(O)c2o1 [DAPHNETIN] | 3.8 ×10⁻⁶ cm/s
17 | C[C@@H]1CC[C@@]2(OC1)O[C@H]1C[C@H]3[C@@H]4CC[C@H]5C[C@@H](O)CC[C@]5(C)[C@H]4CC(=O)[C@]3(C)[C@H]1[C@@H]2C [HECOGENIN] | < 1 ×10⁻⁶ cm/s
18 | Clc1ccc([C@@H]2C[C@H]3CC[C@@H]2N3)cn1 [Epibatidine dihydrochloride] | 5.9 ×10⁻⁶ cm/s
19 | COc1cc(C(O)CN)ccc1O (stereo not shown) [NORMETADRENALINE HYDROCHLORIDE] | < 1 ×10⁻⁶ cm/s
20 | COc1cc(C(=O)O)ccc1O [VANILLIC ACID] | < 1 ×10⁻⁶ cm/s
21 | O=C(/C=C/c1ccc(O)c(O)c1)O[C@H](Cc1ccc(O)c(O)c1)C(=O)O [ROSMARINIC ACID] | 3.4 ×10⁻⁶ cm/s
22 | O=C(OC[C@H]1O[C@@H](OC(=O)c2cc(O)c(O)c(O)c2)[C@H](OC(=O)c2cc(O)c(O)c(O)c2)[C@@H](OC(=O)c2cc(O)c(O)c(O)c2)[C@@H]1O)c1cc(O)c(O)c(O)c1 [1,2,3,6-TETRA-O-GALLOYL-.BETA.-D-GLUCOSE] | < 1 ×10⁻⁶ cm/s

Same assay, conditions: PAMPA, PAMPA-BBB Pe, Table S2: compounds exhibiting moderate to high PAMPA-BBB permeability

Row | SMILES | Papp
23 | CCCOc1ccc2[nH]cc(C3=CCNCC3)c2n1 | 18 ×10⁻⁶ cm/s
24 | S=c1ccss1 [1,2-DITHIOLE-3-THIONE] | 98 ×10⁻⁶ cm/s
25 | COC1=CC(=O)O[C@@H](/C=C/c2ccccc2)C1 [KAWAIN] | 114 ×10⁻⁶ cm/s
26 | C[C@]12CCC(=O)C=C1[C@@H]1C[C@@H]1[C@H]1[C@@H]3[C@@H]4C[C@@H]4[C@@]4(CCC(=O)O4)[C@@]3(C)CC[C@@H]12 [DROSPIRENONE] | 169 ×10⁻⁶ cm/s
27 | COc1cc(OC)c(OC)cc1C=O [GAZARIN] | 64 ×10⁻⁶ cm/s
28 | O=C(/C=C/c1ccccc1)OCc1ccccc1 [BENZYL CINNAMATE] | > 424 ×10⁻⁶ cm/s
29 | COc1ccc2c(c[n+](C)c3c4cc5c(cc4ccc23)OCO5)c1OC [CHELE[…]] | 95 ×10⁻⁶ cm/s

Assay: not given
Settings: not given

Row | SMILES | PAMPA-BBB Pe(10^-6 cm/sec)
30 | COc1cc2c(c3oc(=O)c4c(c13)CCC4=O)[C@@H]1C=CO[C@@H]1O2 [AFLATOXIN B1] | 7.2 10^-6 cm/sec

Same assay, conditions: Table S2: compounds exhibiting moderate to high PAMPA-BBB permeability

Row | SMILES | PAMPA-BBB Pe
31 | CCOC(=O)c1c(C)cc(OC)cc1O [NCGC00095529-01] | 290 10^-6 cm/sec
32 | CCCc1cc(=O)c2ccccc2n1C [NCGC00351153-01] | 137 10^-6 cm/sec
33 | COC(=O)c1c(C)c2c(c(C)c1O)OC(=O)c1c(C)c(Cl)c(O)c(Cl)c1O2 [NCGC00095464-04] | 281 10^-6 cm/sec
34 | COc1cc2c(cc1-c1coc3c4c(c(OC)cc3c1=O)OC(C)(C)C=C4)OCO2 [NCGC00178961-03] | 146 10^-6 cm/sec
35 | COC(=O)c1c(OC)cc2c(c1C)Oc1c(Cl)c(O)c(Cl)c(C)c1C(=O)O2 [NCGC00095466-04] | 27 10^-6 cm/sec
36 | COc1c2ccoc2nc2c(OC)c(OC[C@@H](O)C(C)(C)O)ccc12 [NCGC00179458-02] | 12 10^-6 cm/sec
37 | NC(=O)Nc1ccc(Cl)c(Cl)c1 [NCGC00255466-01] | 148 10^-6 cm/sec
38 | COc1ccc(-c2coc3cc(O)ccc3c2=O)c(O)c1O [NCGC00095474-02] | 14 10^-6 cm/sec
39 | COc1ccc(-c2cc(=O)c3c(O)cc(OC)c(OC)c3o2)c(OC)c1 [NCGC00263973-02] | 201 10^-6 cm/sec
40 | COc1cc2c(cc1OC)-c1cc3cc(OC)c(OC)cc3c(=O)n1CC2 [NCGC00160189-01] | 232 10^-6 cm/sec
41 | C=C(C)[C@H]1COc2cc3oc(=O)ccc3cc2O1 [NCGC00179107-03] | 152 10^-6 cm/sec
42 | CC1(C)C(=O)C=C[C@@]2(C)C1C[C@@H](O)[C@]1(C)C2CC[C@@]2(C)[C@H](c3ccoc3)OC(=O)[C@H]3O[C@]321 (stereo partly shown) [NCGC00179150-03] | 108 10^-6 cm/sec
43 | COC(=O)C1=CO[C@@H](C)[C@@H]2CN3CC[C@]4(C(=O)Nc5c4ccc(OC)c5OC)[C@H]3C[C@H]12 [NCGC00160292-01] | 46 10^-6 cm/sec

Same assay, conditions: Table S3: compounds exhibiting low PAMPA-BBB permeability

Row | SMILES | PAMPA-BBB Pe(10^-6 cm/sec)
44 | COc1ccc2[nH]cc(CCO)c2c1 [NCGC00163352-01] | 9.4 10^-6 cm/sec
45 | CNCCCCc1cnc(C)c2[nH]c3ccccc3c12 [NCGC00160349-01] | <1 10^-6 cm/sec
46 | CC(=O)O[C@H]1C[C@@H](OC(C)=O)C(C)(C)C2C[C@@H](OC(C)=O)[C@]3(C)C(CC[C@@]4(C)[C@H](c5ccoc5)OC(=O)[C@H]5O[C@]543)[C@]21C (stereo partly shown) [NCGC00179019-03] | 2.7 10^-6 cm/sec
47 | OC[C@H]1O[C@@H](n2cnc3cncnc32)[C@H](O)[C@@H]1O [NEBULARINE¦NEBULARINE] | <1 10^-6 cm/sec
48 | O=C1c2ccccc2-[n+]2ccc3c([nH]c4ccccc43)c21 [NCGC00346951-03] | <1 10^-6 cm/sec
49 | COc1cc(-c2oc3cc(O)cc(O)c3c(=O)c2O[C@@H]2O[C@H](CO)[C@@H](O)[C@H](O)[C@H]2O)cc(OC)c1O [NCGC00163630-01] | <1 10^-6 cm/sec
50 | Cc1cc(O)c2c(c1O)C(=O)C(O)=C(O)C2=O [NCGC00160271-01] | 4.8 10^-6 cm/sec
51 | C/C=C(\C)C(=O)O[C@H]1CC(C)=C2C(=O)C=C(C)C2[C@@H]2OC(=O)[C@@](C)(OC(=O)C=C(C)C)C21 (stereo partly shown) [NCGC00160270-01] | 5.7 10^-6 cm/sec
52 | O=C/C=C/c1ccc(O)cc1 [NCGC00095729-01] | 4.5 10^-6 cm/sec
53 | O=C(NC[C@H](O)c1ccccc1)c1ccccc1 [NCGC00160191-01] | <1 10^-6 cm/sec
54 | CC(=O)NCCc1ccc(O)c(-c2c(O)c(O)c3c(c2O)C(=O)c2c(cc(O)c(C(=O)O)c2C(=O)O)C3=O)c1 [NCGC00263986-01] | <1 10^-6 cm/sec
55 | COc1ccc(C2CC(=O)c3ccc(OC)cc3O2)cc1 (stereo not shown) [NCGC00095734-01] | 5.8 10^-6 cm/sec
56 | COc1ccccc1O[C@@H]1O[C@H](CO)[C@H](O)[C@H](O)[C@H]1O [NCGC00351878-01] | 1.5 10^-6 cm/sec
57 | COc1cc(C(=O)OC2C[C@H]3CC[C@@H](C2)N3C)ccc1O (stereo partly shown) [NCGC00179405-02] | 8.5 10^-6 cm/sec
58 | C=CC(O)C1OC1C=CC1OC1C(C)O (stereo not shown) [NCGC00263647-01] | <1 10^-6 cm/sec
59 | COc1c(O)cc2c(=O)oc3c(OC)c(O)cc4c(=O)oc1c2c34 [NCGC00160203-01] | <1 10^-6 cm/sec
60 | C[C@@H]1OC(O[C@H]2[C@H](Oc3cc(O)c4c(=O)c(O)c(-c5ccc(O)cc5)oc4c3)O[C@H](CO)[C@@H](O)[C@@H]2O)[C@H](O)[C@H](O)[C@H]1O (stereo partly shown) [NCGC00163581-01] | <1 10^-6 cm/sec
61 | COc1c2ccoc2nc2c(OC)c(O[C@@H]3O[C@H](C)[C@@H](O)[C@@H](O)[C@H]3O)ccc12 [NCGC00160235-01] | <1 10^-6 cm/sec
62 | C[N+]12CC[C@@]34c5ccccc5N5C(=O)C[C@@H]6OCC=C(C1)[C@H](CC32)[C@@H]6C54 (stereo partly shown) [NCGC00264058-02] | <1 10^-6 cm/sec
63 | Nc1ncnc2c1ncn2[C@@H]1O[C@H](COP(=O)(O)OP(=O)(O)OC[C@H]2OC(O)[C@H](O)[C@@H]2O)[C@@H](O)[C@H]1O (stereo partly shown) [NCGC00163321-01] | <1 10^-6 cm/sec

Same assay, conditions: category in words

Row | SMILES | PAMPA-BBB permeability category
64 | CC(=O)[C@H]1CC[C@H]2[C@@H]3CCC4=CC(=O)CC[C@]4(C)[C@H]3CC[C@]12C [progesterone, reference compound] | high permeability
